US5455251A, “Michellamine antiviral agents, compositions, and treatment methods” (The United States of America as represented by the …, priority 1993, dated 1995)
pEC50, pIC50: −log10 of the molar value. “Also recorded” adds a separate entry of the source. Like-named read-outs stand apart in the source and are kept apart here.

How the values were obtained:
[1] = tested on: HIV-1; assay: Cytoprotection of HIV-1-infected CEM-SS cells, viability by XTT and/or BCECF, 6 days; format: cell-based; details: acetate salts, XTT assay, HIV-1, side-by-side comparison (Table 4), read-out: EC50 (anti-HIV-1 activity)
Protocol: (§1) A battery of interrelated assays on individual wells from 96-well microtiter plates was performed to show antiviral activity. Measurements of cellular viability, in the presence and absence of the compounds in uninfected and virus-infected cells, by an adaptation of the procedure set forth in Weislow et al., J. Natl. Cancer Inst., 81, 577-586 (1989), as well as by an adaptation of a method using the fluorescent probe 2'-7'-biscar-boxyethyl-5(6)-carboxyfluorescein acetoxymethyl ester (BCECF) as set forth in Rink et al., J. Cell Biol., 95, 189-196 (1982), were performed as described herein below. BCECF is a nonfluorescent molecule which readily enters viable cells where it is hydrolyzed by cellular esterases to a fluorescent molecule. Total cellular DNA content was measured with the dye, 2-diamidino-phenylindole (DAPI), which fluoresces when intercalated at A-T specific sites in chromatin, according to the procedure set forth in McCaffrey et al., In Vitro Cell. Develop. Biol., 24, 247-252 (1988). These dyes are used in combination with Particle Concentration Fluorescent Immunoassay technology (PCFIA), specifically the Screen Machine™ available from Baxter Healthcare Corporation (Mundelein, Ill.). The Screen Machine is a semiautomated fluorescent plate reader capable of adding reagents and/or wash buffers to filter-bottomed, 96-well plates with the subsequent evacuation of fluid and concentration of fluorescently-stained cells on the cellulose acetate filter. Fluorescence is detected via epifluorescence. […]
(§2) The appropriate amounts of the pure compounds for anti-HIV evaluations were dissolved in 100% dimethylsulfoxide (DMSO) and then diluted in complete medium to the desired initial concentration (with final DMSO content not exceeding 1%). […] Subsequently, aliquots of cell-free supernatant were removed from each well using the Biomek, and analyzed for reverse transcriptase activity, p24 antigen production, and synthesis of infectious virions (see further below). […]

[2] = tested on: uninfected CEM-SS cells; assay: Direct cytotoxicity to uninfected CEM-SS target cells (XTT/BCECF), 6 days; format: cell-based, human; details: acetate salts, XTT assay, Table 4
Protocol: as §1, §2

[3] = tested on: HIV-2; assay: Anti-HIV-2 (NIH-DZ strain) activity in MT-2 cells, XTT assay, 6 days; format: cell-based, HIV-2 NIH-DZ strain in human MT-2 cells; details: for antiviral effects against HIV-2: free bases or HBr salts, NIH-DZ strain, MT-2 cells
Protocol: (§3) The human lymphocytic target cell lines, CEM-SS and MT-2, used in the antiviral assays were maintained in RPMI 1640 medium (Gibco, Grand Island, N.Y.) without phenol red and supplemented with 5% fetal bovine serum (FBS) (Gibco), 2 mM L-glutamine, and 50 μg/ml gentamicin (Gibco) (complete medium). Exponentially-growing CEM-SS or MT-2 cells were pelleted and resuspended at a concentration of 2.0×10^5 cells/ml in complete medium. For the HIV-1 studies, the Haitian variant of HIV, HTLV-IIIRFwas used. For the HIV-2 studies, the NIH-DZ strain or the CBL20 strain was used. Frozen virus stock solutions were thawed immediately before use and resuspended in complete medium to yield 1.2×10 ^5 SFU/ml.
(§4) The appropriate amounts of the pure compounds for anti-HIV evaluations were dissolved in 100% dimethylsulfoxide (DMSO) and then diluted in complete medium to the desired initial concentration (with final DMSO content not exceeding 1%). All serial dilutions of the michellamines A, B, and C, reagent additions, and plate-to-plate transfers were carried out using an automated Biomek 1000 Workstation (Beckman Instruments, Palo Alto, Calif.). […] Subsequently, aliquots of cell-free supernatant were removed from each well using the Biomek, and analyzed for reverse transcriptase activity, p24 antigen production, and synthesis of infectious virions (see further below). A 25 μl sample of 0.002% (w/v) Fluoricon reference particles (590/620 nm) (Baxter Healthcare Corp.) was added to each well of the test plate to be used as an internal standard for fluorescence assays. […]
(§5) As an estimate of cellular viability, the metabolic reduction of the tetrazolium salt, XTT, to the soluble, colored formazan was carried out by adding 50 μl of the XTT/PMS solution to each well of the original test plate and incubating for 4 hrs at 37° C. After incubation the plates were covered with adhesive plate sealers (Dynatech, Alexandria, Va.) and shaken, and optical densities were determined using a V-max photometer (Molecular Devices, Inc., Menlo Park, Calif.) at a test wavelength of 450 nm. […]

[4] = tested on: HIV-2; assay: Anti-HIV-2 (CBL20 strain) activity in CEM-SS cells, XTT assay; format: cell-based, HIV-2 CBL20 strain in human CEM-SS cells; details: acetate salts
Protocol: as §3
as §4, with “Calif.). Each compound was diluted initially in complete medium and added to a single column of a 96-well microtiter plate (dilution plate). The Biomek was used to perform eight serial dilutions of each drug and to transfer a 100 μl aliquot of each dilution to the test plate. Uninfected CEM-SS or MT-2 cells were plated at a density of 1×10^4 cells in 50 μl of complete medium. Diluted HIV-1 or HIV-2 virus was then added to appropriate wells in a volume of 50 μl to yield a multiplicity of infection of 0.6. Appropriate cell, virus, and drug controls were used, with the final volume in each well being 200 μl.” for “Calif.).”
as §5

[5] = tested on: HIV; format: cell-based
Protocol: A portion (2.107 g) of this extract was suspended/dissolved in 330 ml of 5% aqueous HCl and extracted with four 100 ml aliquots of CHCl3.
The crude alkaloid fraction, obtained by acid-base partitioning, was subjected to centrifugal partition chromatography (CHCl3 --CH3 OH--0.5% HBr/H2 O, 5:5:3), and elution with the lower phase gave four fractions.

[6] = Variable temperature NMR for spontaneous interconversion of atropisomers; format: physicochemical
Source text: Michellamine C appears to have the opposite configuration from michellamine A about the C-5/C-8' and C-5"'/C-8" bonds.

[7] = tested on: HIV-1; details: cultured human lymphoblastoid cell lines; Yarchoan et al. 1986; cited from earlier work

For `COc1cc(C)cc2c(-c3c(O)cc(O)c4c3C[C@@H](C)N[C@@H]4C)cc(-c3cc(-c4c(O)cc(O)c5c4C[C@@H](C)N[C@@H]5C)c4cc(C)cc(OC)c4c3O)c(O)c12` [Michellamine A], the pEC50 ([1]; Human immunodeficiency virus 1, CEM-SS) was 5.02, the pIC50 ([2]; Homo sapiens, CEM-SS) was 3.77 and the “antiviral effects against HIV-2” value ([3]; listed as michellamine A) was “showed antiviral effects”. For the same compound, the pEC50 ([4]; listed as michellamine A) was ~5.00, the “anti-HIV-2 potency, comparison in words” value ([4]; listed as michellamine A) was “somewhat less potent” and the “anti-HIV activity of isolated compounds” value [5] was “active”.

In the case of `COc1cc(C)cc2c(-c3c(O)cc(O)c4c3C[C@@H](C)N[C@@H]4C)cc(-c3cc(-c4c(O)cc(O)c5c4C[C@@H](C)N[C@@H]5C)c4cc(C)cc(OC)c4c3O)c(O)c12` [Michellamine B], the pEC50 ([1]; listed as B) was 5.02, the pIC50 ([2]; listed as B) was < 3.62 and the EC (essentially complete protection) ([3]; Human immunodeficiency virus 2, MT2, 144 h, read-out: concentration giving essentially complete protection against killing effects of HIV-2 upon MT-2 cells) was 30 to 100 µM. For the same compound, the “antiviral effects against HIV-2” value ([3]; listed as michellamine B) was “showed antiviral effects; also recorded: consistently was more potent than michellamine A against HIV-2” and the pEC50 ([4]; listed as michellamine B) was > 5.70.

For `COc1cc(C)cc2c(-c3c(O)cc(O)c4c3C[C@@H](C)N[C@@H]4C)cc(-c3cc(-c4c(O)cc(O)c5c4C[C@@H](C)N[C@@H]5C)c4cc(C)cc(OC)c4c3O)c(O)c12` [Michellamine C], the pEC50 ([1]; listed as C) was 4.89, the pIC50 ([2]; listed as C) was 3.71 and the pEC50 ([4]; listed as michellamine C) was > 5.70. The spontaneous interconversion [6] was “failed to show evidence of spontaneous interconversion”.

For `Cc1cn([C@H]2C[C@H](N=[N+]=[N-])[C@@H](CO)O2)c(=O)[nH]c1=O` [AZT], the “in vitro cytoprotective effects against HIV-1” value [7] is listed as “in vitro cytoprotective effects against the HIV-1”.
